Values joined by “and” are separate entries in the source; they are usually repeats but may differ in a detail not shown here. Identical values can stand only once.
Assays:
UACC-257 = test: NCI-60 one-dose SRB screen (Melanoma); type: cell-based; conditions: Homo sapiens, single dose 10 µM, 48 h, read-out: Growth inhibition percent (GI %)
M14 = test: NCI-60 one-dose SRB screen (Melanoma); type: cell-based; conditions: Homo sapiens, single dose 10 µM, 48 h, read-out: Growth inhibition percent (GI %)
UACC-62 = test: NCI-60 one-dose SRB screen (Melanoma); type: cell-based; conditions: Homo sapiens, single dose 10 µM, 48 h, read-out: Growth inhibition percent (GI %)
SK-MEL-2 = test: NCI-60 one-dose SRB screen (Melanoma); type: cell-based; conditions: Homo sapiens, single dose 10 µM, 48 h, read-out: Growth inhibition percent (GI %)
MALME-3M = test: NCI-60 one-dose SRB screen (Melanoma); type: cell-based; conditions: Homo sapiens, single dose 10 µM, 48 h, read-out: Growth inhibition percent (GI %)
SK-MEL-5 = test: NCI-60 one-dose SRB screen (Melanoma); type: cell-based; conditions: Homo sapiens, single dose 10 µM, 48 h, read-out: Growth inhibition percent (GI %)
SK-MEL-28 = test: NCI-60 one-dose SRB screen (Melanoma); type: cell-based; conditions: Homo sapiens, single dose 10 µM, 48 h, read-out: Growth inhibition percent (GI %)
MDA-MB-435 = test: NCI-60 one-dose SRB screen (Melanoma); type: cell-based; conditions: Homo sapiens, single dose 10 µM, 48 h, read-out: Growth inhibition percent (GI %)
LOX IMVI = test: NCI-60 one-dose SRB screen (Melanoma); type: cell-based; conditions: Homo sapiens, single dose 10 µM, 48 h, read-out: Growth inhibition percent (GI %)
MCF-7 = test: NCI-60 one-dose SRB screen (Breast Cancer); type: cell-based; conditions: Homo sapiens, MCF7, single dose 10 µM, 48 h, read-out: Growth inhibition percent (GI %)
MDA-MB-231/ATCC = test: NCI-60 one-dose SRB screen (Breast Cancer); type: cell-based; conditions: Homo sapiens, single dose 10 µM, 48 h, read-out: Growth inhibition percent (GI %)
HS 578T = test: NCI-60 one-dose SRB screen (Breast Cancer); type: cell-based; conditions: Homo sapiens, single dose 10 µM, 48 h, read-out: Growth inhibition percent (GI %)
MDA-MB-468 = test: NCI-60 one-dose SRB screen (Breast Cancer); type: cell-based; conditions: Homo sapiens, single dose 10 µM, 48 h, read-out: Growth inhibition percent (GI %)
PC-3 = test: NCI-60 one-dose SRB screen (Prostate Cancer); type: cell-based; conditions: Homo sapiens, single dose 10 µM, 48 h, read-out: Growth inhibition percent (GI %)
DU-145 = test: NCI-60 one-dose SRB screen (Prostate Cancer); type: cell-based; conditions: Homo sapiens, single dose 10 µM, 48 h, read-out: Growth inhibition percent (GI %)
hCA XII = hCA XII (Homo sapiens, UniProt O43570); test: CA inhibitory activity, spectrophotometric p-NPA assay; type: biochemical; conditions: p-NPA substrate, pH 7.5, 25 °C, triplicate; read-out: IC50 (µM) ± SD hCA XII
Chain of hCA XII (O43570 25-354): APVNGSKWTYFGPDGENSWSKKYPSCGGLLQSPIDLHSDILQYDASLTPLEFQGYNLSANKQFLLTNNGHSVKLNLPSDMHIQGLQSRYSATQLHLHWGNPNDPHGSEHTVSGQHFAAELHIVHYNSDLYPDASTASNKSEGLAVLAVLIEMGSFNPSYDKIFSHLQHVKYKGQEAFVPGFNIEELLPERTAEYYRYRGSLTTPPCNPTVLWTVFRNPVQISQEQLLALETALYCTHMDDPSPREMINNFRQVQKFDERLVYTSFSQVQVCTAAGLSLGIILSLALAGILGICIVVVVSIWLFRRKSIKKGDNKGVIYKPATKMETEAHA
Procedure: The software used to calculate CA IC50 along with statistical analysis of the results is GraphPad Prism 9.00. Results were estimated by using one-way ANOVA and the Bonferroni’s multiple comparisons posthoc test was performed (P < 0.05) [46]
Carbonic anhydrase inhibitory activity:
The spectrophotometric assay was conducted in HEPES-Tris buffer, NaCl of pH 7.5 (20mM) at 25◦C. Each inhibitory well-consisted of 50 μL of assay buffer solution, 20 μL of hCA enzyme solution (20 ng/μL in Assay Buffer), and 50 μL of test compound in HPLC grade DMSO (maintain 10% of the final concentration). The mixture solution was
Substrate p-nitrophenyl acetate (p-NPA) (0.7mM) was prepared in HPLC grade methanol and the reaction was started by adding 20 μL to a well in a 96-well-plate. The amount of product formed was measured for 30 min continuously at 1 min intervals at 400 nm in a 96-well-plate using xMARK microplate spectrophotometer, Bio-Rad (USA). The activity of the controlled compound was taken as 100%. All experiments were carried out in triplicates of each used concentration, and results are represented as a

U251 = test: NCI-60 one-dose SRB screen (CNS Cancer); type: cell-based; conditions: Homo sapiens, U-251, single dose 10 µM, 48 h, read-out: Growth inhibition percent (GI %)
SF-295 = test: NCI-60 one-dose SRB screen (CNS Cancer); type: cell-based; conditions: Homo sapiens, single dose 10 µM, 48 h, read-out: Growth inhibition percent (GI %)
SF-268 = test: NCI-60 one-dose SRB screen (CNS Cancer); type: cell-based; conditions: Homo sapiens, single dose 10 µM, 48 h, read-out: Growth inhibition percent (GI %)
SNB-75 = test: NCI-60 one-dose SRB screen (CNS Cancer); type: cell-based; conditions: Homo sapiens, single dose 10 µM, 48 h, read-out: Growth inhibition percent (GI %)
SF-539 = test: NCI-60 one-dose SRB screen (CNS Cancer); type: cell-based; conditions: Homo sapiens, single dose 10 µM, 48 h, read-out: Growth inhibition percent (GI %)
SNB-19 = test: NCI-60 one-dose SRB screen (CNS Cancer); type: cell-based; conditions: Homo sapiens, single dose 10 µM, 48 h, read-out: Growth inhibition percent (GI %)
NCI-H23 = test: NCI-60 one-dose SRB screen (Non-Small Cell Lung Cancer); type: cell-based; conditions: Homo sapiens, single dose 10 µM, 48 h, read-out: Growth inhibition percent (GI %)
EKVX = test: as above; type: cell-based; conditions: Homo sapiens, single dose 10 µM, 48 h, read-out: Growth inhibition percent (GI %)
HOP-62 = test: as above; type: cell-based; conditions: Homo sapiens, single dose 10 µM, 48 h, read-out: Growth inhibition percent (GI %)
NCI-H226 = test: as above; type: cell-based; conditions: Homo sapiens, single dose 10 µM, 48 h, read-out: Growth inhibition percent (GI %)
NCI-H460 = test: as above; type: cell-based; conditions: Homo sapiens, single dose 10 µM, 48 h, read-out: Growth inhibition percent (GI %)
NCI-H322M = test: as above; type: cell-based; conditions: Homo sapiens, single dose 10 µM, 48 h, read-out: Growth inhibition percent (GI %)
NCI-H522 = test: as above; type: cell-based; conditions: Homo sapiens, single dose 10 µM, 48 h, read-out: Growth inhibition percent (GI %)
HOP-92 = test: as above; type: cell-based; conditions: Homo sapiens, single dose 10 µM, 48 h, read-out: Growth inhibition percent (GI %)
A549/ATCC = test: as above; type: cell-based; conditions: Homo sapiens, single dose 10 µM, 48 h, read-out: Growth inhibition percent (GI %)
hCA IX = hCA IX (Homo sapiens, UniProt Q16790); test: CA inhibitory activity, spectrophotometric p-NPA assay; type: biochemical; conditions: p-NPA substrate, pH 7.5, 25 °C, triplicate; read-out: IC50 (µM) ± SD hCA IX
MOLT-4 = test: NCI-60 one-dose SRB screen (Leukemia); type: cell-based; conditions: Homo sapiens, single dose 10 µM, 48 h, read-out: Growth inhibition percent (GI %)
CCRF-CEM = test: NCI-60 one-dose SRB screen (Leukemia); type: cell-based; conditions: Homo sapiens, single dose 10 µM, 48 h, read-out: Growth inhibition percent (GI %)
RPMI-8226 = test: NCI-60 one-dose SRB screen (Leukemia); type: cell-based; conditions: Homo sapiens, single dose 10 µM, 48 h, read-out: Growth inhibition percent (GI %)
SR = test: NCI-60 one-dose SRB screen (Leukemia); type: cell-based; conditions: Homo sapiens, single dose 10 µM, 48 h, read-out: Growth inhibition percent (GI %)
K-562 = test: NCI-60 one-dose SRB screen (Leukemia); type: cell-based; conditions: Homo sapiens, K562, single dose 10 µM, 48 h, read-out: Growth inhibition percent (GI %)
HL-60(TB) = test: NCI-60 one-dose SRB screen (Leukemia); type: cell-based; conditions: Homo sapiens, single dose 10 µM, 48 h, read-out: Growth inhibition percent (GI %)
SK-OV-3 = test: NCI-60 one-dose SRB screen (Ovarian cancer); type: cell-based; conditions: Homo sapiens, single dose 10 µM, 48 h, read-out: Growth inhibition percent (GI %)
OVCAR-3 = test: NCI-60 one-dose SRB screen (Ovarian cancer); type: cell-based; conditions: Homo sapiens, single dose 10 µM, 48 h, read-out: Growth inhibition percent (GI %)
OVCAR-4 = test: NCI-60 one-dose SRB screen (Ovarian cancer); type: cell-based; conditions: Homo sapiens, single dose 10 µM, 48 h, read-out: Growth inhibition percent (GI %)
IGROV1 = test: NCI-60 one-dose SRB screen (Ovarian cancer); type: cell-based; conditions: Homo sapiens, IGROV-1, single dose 10 µM, 48 h, read-out: Growth inhibition percent (GI %)
OVCAR-5 = test: NCI-60 one-dose SRB screen (Ovarian cancer); type: cell-based; conditions: Homo sapiens, single dose 10 µM, 48 h, read-out: Growth inhibition percent (GI %)
NCI/ADR-RES = test: NCI-60 one-dose SRB screen (Ovarian cancer); type: cell-based; conditions: Homo sapiens, single dose 10 µM, 48 h, read-out: Growth inhibition percent (GI %)
OVCAR-8 = test: NCI-60 one-dose SRB screen (Ovarian cancer); type: cell-based; conditions: Homo sapiens, single dose 10 µM, 48 h, read-out: Growth inhibition percent (GI %)

CCOC(=O)c1ccc(NC(=O)COC(=O)c2cn(-c3ccc(S(N)(=O)=O)cc3)nc2-c2ccc(Br)cc2)cc1 [Compound 5d, 2-[(4-(Ethoxycarbonyl)phenyl)amino]-2-oxoethyl 3-(4-bromophenyl)-1-(4-sulfamoylphenyl)-1H-pyrazole-4-carboxylate] gave an inhibition at 10 µM (UACC-257) of 38.3%, an inhibition at 10 µM (M14) of 73.7% and an inhibition at 10 µM (UACC-62) of 58.7%. For the same compound, the inhibition at 10 µM (SK-MEL-2) was 49.1%, the inhibition at 10 µM (MALME-3M) was 46.1% and the inhibition at 10 µM (SK-MEL-5) was 36.3%. It also gave an inhibition at 10 µM (SK-MEL-28) of 55.6%, an inhibition at 10 µM (MDA-MB-435) of 61.2% and an inhibition at 10 µM (LOX IMVI) of 72.9%. The inhibition at 10 µM (MCF-7) was 91%, the inhibition at 10 µM (MDA-MB-231/ATCC) was 43.7% and the inhibition at 10 µM (HS 578T) was 51.3%. For the same compound, the inhibition at 10 µM (MDA-MB-468) was 67.6%, the inhibition at 10 µM (PC-3) was 78.8% and the inhibition at 10 µM (DU-145) was 45.8%. It also gave an IC50 (hCA XII) of 0.99 ± 0.037 µM, an inhibition at 10 µM (U251) of 57.9% and an inhibition at 10 µM (SF-295) of 57.5%. It also gave an inhibition at 10 µM (SF-268) of 64.1%, an inhibition at 10 µM (SNB-75) of 74.9% and an inhibition at 10 µM (SF-539) of 63.3%. It also gave an inhibition at 10 µM (SNB-19) of 57.9%, an inhibition at 10 µM (NCI-H23) of 49.4% and an inhibition at 10 µM (EKVX) of 62.5%. It also gave an inhibition at 10 µM (HOP-62) of 26.2%, an inhibition at 10 µM (NCI-H226) of 48.3% and an inhibition at 10 µM (NCI-H460) of 65.7%. The inhibition at 10 µM (NCI-H322M) was 21.2%, the inhibition at 10 µM (NCI-H522) was 64.9% and the inhibition at 10 µM (HOP-92) was 72.1%. The inhibition at 10 µM (A549/ATCC) was 62.9%, the IC50 (hCA IX) was 0.631 ± 0.029 µM and the inhibition at 10 µM (MOLT-4) was 94%. For the same compound, the inhibition at 10 µM (CCRF-CEM) was 85.8%, the inhibition at 10 µM (RPMI-8226) was 80.3% and the inhibition at 10 µM (SR) was 80.1%. It also gave an inhibition at 10 µM (K-562) of 80.4%, an inhibition at 10 µM (HL-60(TB)) of 89.4% and an inhibition at 10 µM (SK-OV-3) of 29%. The inhibition at 10 µM (OVCAR-3) was 62.6%, the inhibition at 10 µM (OVCAR-4) was 64% and the inhibition at 10 µM (IGROV1) was 31.7%. The inhibition at 10 µM (OVCAR-5) was 38%, the inhibition at 10 µM (NCI/ADR-RES) was 28.2% and the inhibition at 10 µM (OVCAR-8) was 13.3%.

With COc1ccc(-c2nn(-c3ccc(S(N)(=O)=O)cc3)cc2C(=O)OCC(=O)Nc2ccc(S(N)(=O)=O)cc2)cc1 [Compound 4c, 2-Oxo-2-[(4-sulfamoylphenyl)amino] ethyl 3-(4-methoxyphenyl)-1-(4-sulfamoylphenyl)-1H-pyrazole-4-carboxylate] the inhibition at 10 µM (UACC-257) was under 5%, the inhibition at 10 µM (M14) was 43.3% and the inhibition at 10 µM (UACC-62) was under 5%. It also gave an inhibition at 10 µM (MALME-3M) of under 5%, an inhibition at 10 µM (SK-MEL-5) of under 5% and an inhibition at 10 µM (SK-MEL-28) of under 5%. It also gave an inhibition at 10 µM (MDA-MB-435) of under 5%, an inhibition at 10 µM (LOX IMVI) of under 5% and an inhibition at 10 µM (MCF-7) of 8.77%. The inhibition at 10 µM (MDA-MB-231/ATCC) was under 5%, the inhibition at 10 µM (HS 578T) was under 5% and the inhibition at 10 µM (MDA-MB-468) was under 5%. For the same compound, the inhibition at 10 µM (PC-3) was 8.81%, the inhibition at 10 µM (DU-145) was under 5% and the IC50 (hCA XII) was 0.41 µM and 0.415 µM. For the same compound, the inhibition at 10 µM (U251) was under 5%, the inhibition at 10 µM (SF-295) was under 5% and the inhibition at 10 µM (SF-268) was under 5%. The inhibition at 10 µM (SNB-75) was 28.7%, the inhibition at 10 µM (SF-539) was under 5% and the inhibition at 10 µM (SNB-19) was under 5%. The inhibition at 10 µM (NCI-H23) was under 5%, the inhibition at 10 µM (EKVX) was under 5% and the inhibition at 10 µM (HOP-62) was under 5%. It also gave an inhibition at 10 µM (NCI-H226) of under 5%, an inhibition at 10 µM (NCI-H460) of under 5% and an inhibition at 10 µM (NCI-H322M) of under 5%. The inhibition at 10 µM (NCI-H522) was under 5%, the inhibition at 10 µM (HOP-92) was under 5% and the inhibition at 10 µM (A549/ATCC) was under 5%. The IC50 (hCA IX) was 0.17 µM and 0.175 µM, the inhibition at 10 µM (MOLT-4) was under 5% and the inhibition at 10 µM (CCRF-CEM) was under 5%. For the same compound, the inhibition at 10 µM (RPMI-8226) was 9.19%, the inhibition at 10 µM (SR) was under 5% and the inhibition at 10 µM (K-562) was 9.61%. For the same compound, the inhibition at 10 µM (HL-60(TB)) was 13.9%, the inhibition at 10 µM (SK-OV-3) was under 5% and the inhibition at 10 µM (OVCAR-3) was under 5%. The inhibition at 10 µM (OVCAR-4) was under 5%, the inhibition at 10 µM (IGROV1) was under 5% and the inhibition at 10 µM (OVCAR-5) was under 5%. For the same compound, the inhibition at 10 µM (OVCAR-8) was under 5%.

Source: PMC12454493, “Insight on novel sulfamoylphenyl pyrazole derivatives as anticancer carbonic anhydrase inhibitors” (Molecular Diversity, 2024)
